Test [1] has as its target T1, DDR1 (Homo sapiens, UniProt Q08345).
T1 construct: purchased Reaction Biology
Put plainly: HotSpot radiometric kinase assay (Reaction Biology), DDR1. Type of test: biochemical. As to conditions: 200 nM kinase, substrate IRS1tide 20 μM, 33P-ATP, 120 minutes at room temperature. The procedure: (§1) The compounds were profiled in the HotSpot radiometric assays (Reaction Biology).
Briefly, • 1. Substrate indicated in Table 1 was dissolved in freshly prepared reaction buffer (20 mM HEPES (pH 7.5), 10 mM MgCl2, 1 mM EGTA, 0.01% Brij35, 0.02 mg/ml BSA, 0.1 mM Na3VO4, 2 mM DTT, 1% DMSO) at the concentration indicated in Table 1. • 2. Corresponding kinase (concentration indicated in Table 1) was added and the mixture was gently mixed. • 3. Tested compound dissolved in DMSO was added into the kinase reaction mixture. • 4. ^33P-ATP (specific activity 0.01 μCi/μL final) was added into the reaction mixture to initiate the reaction. • 5. The kinase reaction was incubated for 120 minutes at room temperature. • 6. […] The radioactive phosphorylated substrate remaining on the filter paper was measured.
(§2) Kinase activity data were expressed as the percent remaining kinase activity in tested samples compared to the vehicle (DMSO) reactions. IC50 values and curve fits were obtained using Prism4 Software (GraphPad).

In test [2] the target is T2, FLT3 (Homo sapiens, UniProt P36888).
T2 construct: purchased Reaction Biology
T2 sequence (P36888 27-993): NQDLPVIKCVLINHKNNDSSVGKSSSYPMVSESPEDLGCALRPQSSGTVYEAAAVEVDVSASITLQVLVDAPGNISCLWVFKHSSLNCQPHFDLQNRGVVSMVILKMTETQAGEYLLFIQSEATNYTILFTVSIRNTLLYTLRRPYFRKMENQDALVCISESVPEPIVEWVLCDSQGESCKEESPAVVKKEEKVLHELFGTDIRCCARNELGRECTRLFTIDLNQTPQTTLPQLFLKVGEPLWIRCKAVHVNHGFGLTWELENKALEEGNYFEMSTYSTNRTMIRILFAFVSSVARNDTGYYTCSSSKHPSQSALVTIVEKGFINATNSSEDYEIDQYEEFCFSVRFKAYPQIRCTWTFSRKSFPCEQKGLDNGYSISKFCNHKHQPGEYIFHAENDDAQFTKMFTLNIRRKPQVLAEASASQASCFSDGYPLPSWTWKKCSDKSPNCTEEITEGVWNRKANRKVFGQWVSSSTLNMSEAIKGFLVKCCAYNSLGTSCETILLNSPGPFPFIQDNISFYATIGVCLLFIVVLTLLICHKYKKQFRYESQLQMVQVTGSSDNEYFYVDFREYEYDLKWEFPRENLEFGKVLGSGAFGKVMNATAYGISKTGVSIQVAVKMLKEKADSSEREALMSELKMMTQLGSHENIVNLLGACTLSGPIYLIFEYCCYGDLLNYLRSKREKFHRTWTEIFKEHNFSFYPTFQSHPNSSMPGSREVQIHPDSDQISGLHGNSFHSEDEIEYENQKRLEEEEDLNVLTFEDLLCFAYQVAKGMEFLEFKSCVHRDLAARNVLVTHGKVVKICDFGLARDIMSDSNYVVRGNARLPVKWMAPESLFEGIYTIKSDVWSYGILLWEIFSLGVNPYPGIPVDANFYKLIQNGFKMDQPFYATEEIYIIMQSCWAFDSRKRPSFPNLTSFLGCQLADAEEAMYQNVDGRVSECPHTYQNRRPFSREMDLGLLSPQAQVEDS
Put plainly: HotSpot radiometric kinase assay (Reaction Biology), FLT3. Type of test: biochemical. The conditions noted are these: 4 nM kinase, substrate ABLtide 20 μM, 33P-ATP, 120 minutes at room temperature. The procedure:
as §1
Briefly, • 1. Substrate indicated in Table 1 was dissolved in freshly prepared reaction buffer (20 mM HEPES (pH 7.5), 10 mM MgCl2, 1 mM EGTA, 0.01% Brij35, 0.02 mg/ml BSA, 0.1 mM Na3VO4, 2 mM DTT, 1% DMSO) at the concentration indicated in Table 1. • 2. Corresponding kinase (concentration indicated in Table 1) was added and the mixture was gently mixed. • 3. Tested compound dissolved in DMSO was added into the kinase reaction mixture. • 4. ^33P-ATP (specific activity 0.01 μCi/μL final) was added into the reaction mixture to initiate the reaction. • 5. The kinase reaction was incubated for 120 minutes at room temperature. • 6. Reaction mixture was spotted onto P81 ion exchange paper (Whatman K 3698-915). • 7. The filters were extensively washed with […]. • 7. The radioactive phosphorylated substrate remaining on the filter paper was measured.
as §2
Table 2 summarizes the inhibitory activities of indicated compounds tested in the in vitro kinase assays described above.

T1 sequence (Q08345 19-913): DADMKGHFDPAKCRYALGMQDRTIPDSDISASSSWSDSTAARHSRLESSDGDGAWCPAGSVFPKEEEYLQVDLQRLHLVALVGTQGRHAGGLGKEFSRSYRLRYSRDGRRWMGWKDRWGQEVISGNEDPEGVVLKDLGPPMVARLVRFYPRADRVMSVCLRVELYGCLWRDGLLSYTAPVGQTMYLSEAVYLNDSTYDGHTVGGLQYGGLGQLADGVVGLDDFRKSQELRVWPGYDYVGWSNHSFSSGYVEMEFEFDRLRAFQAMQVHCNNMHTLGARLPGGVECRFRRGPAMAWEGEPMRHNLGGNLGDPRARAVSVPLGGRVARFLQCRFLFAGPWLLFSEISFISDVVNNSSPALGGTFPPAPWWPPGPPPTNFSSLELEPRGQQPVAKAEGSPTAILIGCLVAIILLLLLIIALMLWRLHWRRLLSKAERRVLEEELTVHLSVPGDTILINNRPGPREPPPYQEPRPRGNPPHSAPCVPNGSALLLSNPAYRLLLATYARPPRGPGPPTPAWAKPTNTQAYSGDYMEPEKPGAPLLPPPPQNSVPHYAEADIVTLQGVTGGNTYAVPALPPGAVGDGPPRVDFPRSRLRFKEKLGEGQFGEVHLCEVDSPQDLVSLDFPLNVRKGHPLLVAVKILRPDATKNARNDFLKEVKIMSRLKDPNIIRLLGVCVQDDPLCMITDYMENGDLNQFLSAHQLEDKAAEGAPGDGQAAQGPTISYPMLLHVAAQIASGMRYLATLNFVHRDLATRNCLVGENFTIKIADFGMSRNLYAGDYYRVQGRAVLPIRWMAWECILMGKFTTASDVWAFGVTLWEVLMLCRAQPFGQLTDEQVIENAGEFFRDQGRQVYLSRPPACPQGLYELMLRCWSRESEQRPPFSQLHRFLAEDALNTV

As usually defined, the IC50 is the point on the concentration scale where inhibition reaches its midpoint. Higher therefore signals a need for much substance. `CCCc1oc2cc(-c3ccc(N4CCN(C)CC4)cc3)cnc2c1-c1ccc(C(N)=O)cc1` [Preparative Example 243, 4-{6-[4-(4-methylpiperazin-1-yl)phenyl]-2-propylfuro[3,2-b]pyridin-3-yl}benzamide]: the IC50 in test [1] is 208 nM.

Regarding `c1ccc(-c2ccccc2-c2coc3cc(-c4ccc(N5CCNCC5)cc4)cnc23)cc1` [Preparative Example 161, 3-([1,1′-biphenyl]-2-yl)-6-(4-(piperazin-1-yl)phenyl)furo[3,2-b]pyridine], the IC50 in test [2] stood at 832 nM; in test [1], 209 nM.

As for `CN1CCN(c2ccc(-c3cnc4c(-c5cccc(-c6ccccc6)c5)coc4c3)cc2)CC1` [Preparative Example 158, 3-([1,1′-biphenyl]-3-yl)-6-(4-(4-methylpiperazin-1-yl)phenyl)furo[3,2-b]pyridine], the IC50 in test [1] worked out at 184 nM.

In the case of `CSc1cccc(-c2coc3cc(-c4ccc(N5CCN(C)CC5)cc4)cnc23)c1` [Preparative Example 147, 6-(4-(4-methylpiperazin-1-yl)phenyl)-3-(3-(methylthio)phenyl)furo[3,2-b]pyridine], the IC50 was 203 nM in test [2] and 236 nM in test [1].

On to `Cc1nc2c(-c3ccncc3)coc2cc1-c1ccc(N2CCN(C)CC2)cc1` [Preparative Example 80, 5-methyl-6-(4-(4-methylpiperazin-1-yl)phenyl)-3-(pyridin-4-yl)furo[3,2-b]pyridine], for which the IC50 in test [2] stood at 137 nM.

As for `NC(=O)Nc1cccc(-c2coc3cc(-c4ccccc4)cnc23)c1` [1-(3-(6-phenylfuro[3,2-b]pyridin-3-yl)phenyl)urea], the midpoint of inhibition in test [2], the IC50, lay at 46 nM.

Consider `CN1CCN(c2ccc(-c3cnc4c(-c5ccc(NC(N)=O)cc5)coc4c3)cc2)CC1` [Preparative Example 251, (4-{6-[4-(4-methylpiperazin-1-yl)phenyl]furo[3,2-b]pyridin-3-yl}phenyl)urea], for which, in test [2], the IC50 was found to be 113 nM.

`c1ccc(-c2coc3ccc(Nc4ccc(N5CCOCC5)cc4)nc23)cc1` [compound 8B from WO 2015/165428, reference compound] registered an IC50 in test [2] of 1950 nM.

With `CCCc1oc2cc(-c3ccc(N4CCN(C)CC4)cc3)cnc2c1-c1cnn(C)c1` [Preparative Example 245, 1-methyl-4-{4-[3-(1-methyl-1H-pyrazol-4-yl)-2-propylfuro[3,2-b]pyridin-6-yl]phenyl}piperazine], inhibition in test [1] was half-maximal at 312 nM (IC50).

`c1ncc(-c2coc3cc(-c4ccc(N5CCNCC5)cc4)cnc23)cn1` [Preparative Example 206, 5-{6-[4-(piperazin-1-yl)phenyl]furo[3,2-b]pyridin-3-yl}pyrimidine] showed an IC50 in test [2] of 203 nM.

Regarding `Cc1cc(-c2coc3cc(-c4ccc(N5CCNCC5)cc4)cnc23)cc(C)n1` [Preparative Example 8, 3-(2,6-dimethylpyridin-4-yl)-6-(4-(piperazin-1-yl)phenyl)furo[3,2-b]pyridine], the midpoint of inhibition in test [2], the IC50, lay at 279 nM.

In test [2], `CN1CCN(c2ccc(-c3cnc4c(-c5cccc(C(N)=O)c5F)coc4c3)cc2)CC1` [Preparative Example 214, 2-fluoro-3-(6-(4-(4-methylpiperazin-1-yl)phenyl)furo[3,2-b]pyridin-3-yl)benzamide] registered an IC50 of 496 nM.

`CN1CCN(c2ccc(Nc3ccc4occ(-c5ccccc5)c4n3)cc2)CC1` [compound 8C from WO 2015/165428, reference compound] gave an IC50 in test [2] of 1030 nM.

In the case of `c1ccc(Nc2ccc3occ(-c4ccccc4)c3n2)cc1` [compound 8E from WO 2015/165428, reference compound], the IC50 in test [2] amounted to 2720 nM.

Compound `CN1CCN(c2ccc(-c3cnc4c(-c5ccccc5)c(-c5ccccc5)oc4c3)cc2)CC1` [Preparative Example 249, 1-(4-{2,3-diphenylfuro[3,2-b]pyridin-6-yl}phenyl)-4-methylpiperazine] came in with an IC50 in test [1] of 549 nM.

Take `CN(C)CCN(C)c1ccc(Nc2cnc3c(-c4ccncc4)coc3c2)cc1` [Preparative Example 98, N^1-(2-(dimethylamino)ethyl)-N^1-methyl-N^4-(3-(pyridin-4-yl)furo[3,2-b]pyridin-6-yl)benzene-1,4-diamine]: in test [2], the IC50 came to 122 nM.

`CN1CCN(c2ccc(-c3cnc4c(-c5ccc(CC(N)=O)cc5)coc4c3)cc2)CC1` [Preparative Example 236, 2-(4-(6-(4-(4-methylpiperazin-1-yl)phenyl)furo[3,2-b]pyridin-3-yl)phenyl)acetamide]: in test [2], the IC50 amounted to 54 nM.

`c1ccc(-c2cnc3c(-c4ccncc4)coc3c2)cc1` [Preparative Example 22, 6-phenyl-3-(pyridin-4-yl)furo[3,2-b]pyridine]: in test [2], the half-maximal inhibitory concentration (IC50) amounted to 183 nM.

Consider `CC(C)c1ccc(-c2coc3cc(-c4ccc(N5CCNCC5)cc4)cnc23)cc1` [Preparative Example 67, 3-(4-isopropylphenyl)-6-(4-(piperazin-1-yl)phenyl)furo[3,2-b]pyridine], for which 608 nM corresponded to half-maximal inhibition in test [2] (IC50).

In test [1], `C(#Cc1coc2cc(-c3ccc(N4CCNCC4)cc3)cnc12)c1ccccc1` [Preparative Example 191, 1-{4-[3-(2-phenylethynyl)furo[3,2-b]pyridin-6-yl]phenyl}piperazine] registered an IC50 of 329 nM.

As for `c1ccc(-c2coc3ccc(Nc4ccncc4)nc23)cc1` [compound 8D from WO 2015/165428, reference compound], it took 1240 nM to reach half-maximal inhibition in test [2] (IC50).

The compound `c1ccc(Nc2cnc3c(-c4ccncc4)coc3c2)cc1` [Preparative Example 84, N-phenyl-3-(pyridin-4-yl)furo[3,2-b]pyridin-6-amine] displayed an IC50 in test [2] of 139 nM.

Take `c1cc(-c2coc3cc(-c4ccc(N5CCOCC5)nc4)cnc23)ccn1` [Preparative Example 23, 6-(6-morpholinopyridin-3-yl)-3-(pyridin-4-yl)furo[3,2-b]pyridine]: the half-inhibitory concentration (IC50) in test [2] came to 99 nM.

As to `COc1ccc(-c2coc3cc(-c4ccc(N5CCN(C)CC5)cc4)cnc23)cn1` [Preparative Example 259, 3-(6-methoxypyridin-3-yl)-6-(4-(4-methylpiperazin-1-yl)phenyl)furo[3,2-b]pyridine], in test [1], it took 261 nM to reach half-maximal inhibition (IC50).

As for `Cc1ccc(NC(=O)c2cccc(-c3coc4cc(-c5ccc(N6CCNCC6)cc5)cnc34)c2)cc1` [Preparative Example 119, 3-(6-(4-(piperazin-1-yl)phenyl)furo[3,2-b]pyridin-3-yl)-N-(p-tolyl)benzamide], the IC50 in test [2] is 790 nM.

In test [2], `c1cc(-c2coc3cc(-c4ccc(N5CCCCC5)nc4)cnc23)ccn1` [Preparative Example 48, 6-(6-(piperidin-1-yl)pyridin-3-yl)-3-(pyridin-4-yl)furo[3,2-b]pyridine] displayed an IC50 of 136 nM.

In turn, `Nc1ccc(-c2cnc3c(-c4ccncc4)coc3c2)cc1` [Preparative Example 47, 4-(3-(pyridin-4-yl)furo[3,2-b]pyridin-6-yl)aniline] registered an IC50 in test [2] of 90 nM.

Consider `O=S(=O)(NCc1ccccc1)c1cccc(-c2coc3cc(-c4ccc(N5CCNCC5)cc4)cnc23)c1` [Preparative Example 122, N-benzyl-3-(6-(4-(piperazin-1-yl)phenyl)furo[3,2-b]pyridin-3-yl)benzenesulfonamide], for which the IC50 in test [2] was found to be 138 nM.

Source of the values: patent US20250352550A1, “SUBSTITUTED FUROPYRIDINES FOR THERAPEUTIC USE” (MASARYKOVA UNIVERZITA, priority 2022, published 2025).
